Experimental data reported in patent publication US8258114B2, “Modulation of glucose-6-phosphatase translocase expression” (Isis Pharmaceuticals, Inc., priority 2004, dated 2012).
Like-named read-outs stand apart in the source and are kept apart here.

Experiments:
[1] = system: glucose-6-phosphatase translocase mRNA; experiment: Target reduction in liver: rat dose-response study (Table 12); format: in vivo; conditions: Sprague-Dawley rats; for % Inhibition, target reduction in liver: three weeks
Procedure: (§1) Each treatment group was comprised of 4 animals.
At the end of the treatment period, animals were sacrificed and target reduction in liver was measured by real-time PCR as described in other examples herein. Results are shown in Table 12 as the average percent reduction in glucose-6-phosphatase translocase levels as compared to saline treated control.

[2] = Plasma glucose, cholesterol and triglycerides in normal Sprague-Dawley rats (Table 14); format: in vivo, rat; design: plasma GLUCOSE WK 0 / plasma GLUCOSE WK 3: unit not given beside the values
Procedure: as §1
To further assess the physiological effects resulting from inhibition of target mRNA, the rats were evaluated at the beginning (Wk 0) and at the end (Wk 3) of the treatment period for plasma glucose, plasma cholesterol, and plasma triglyceride levels. Triglycerides and cholesterol were measured by routine clinical analyzer instruments (e.g. Olympus Clinical Analyzer, Melville, N.Y.). Glucose levels were measured using a glucose analyzer, for example a YSI glucose analyzer (YSI Scientific, Yellow Springs, Ohio). Results are presented in Table 14 as the average level of plasma glucose, plasma cholesterol (CHOL), or plasma triglycerides (TRIG) measured per treatment group.

[3] = system: rat glucose-6-phosphatase translocase mRNA; experiment: Reduction of glucose-6-phosphatase translocase mRNA in liver or kidney of ZDF rats (Table 15); format: in vivo; conditions: for % Inhibition of glucose-6-phosphatase translocase, Kidney / % Inhibition of glucose-6-phosphatase translocase, Liver: alone or with rosiglitazone 3 mg/kg daily
Procedure: Saline-injected animals served as a control treatment group. At the end of the treatment period, animals were sacrificed and target reduction in liver and kidney were measured by real-time PCR as described in other examples herein. […] For example, the following primer-probe set was designed to hybridize to rat glucose-6-phosphatase translocase sequences cited in Table 1: Forward primer: [NT] (incorporated herein as SEQ ID NO: 339) Reverse primer: [NT] (incorporated herein as SEQ ID NO: 340) PCR probe: […] (incorporated herein as SEQ ID NO: 341), where FAM is the fluorescent dye and TAMRA is the quencher dye.

[4] = system: catalytic subunit of glucose-6-phosphatase (G6PC) mRNA; experiment: Reduction of catalytic subunit of glucose-6-phosphatase (G6PC) mRNA in liver or kidney of ZDF rats (Table 15); format: in vivo, rat; conditions: alone or with rosiglitazone 3 mg/kg daily
Procedure: (§2) Saline-injected animals served as a control treatment group.
At the end of the treatment period, animals were sacrificed and target reduction in liver and kidney were measured by real-time PCR as described in other examples herein. Also measured were reductions in the catalytic subunit of glucose-6-phosphatase (G6PC) using a primer-probe set designed to hybridize to that mRNA. For example, the following primer-probe set was designed to hybridize to rat glucose-6-phosphatase translocase sequences cited in Table 1:
Results for each treatment group are shown in Table 15 as the average percent reduction in glucose-6-phosphatase translocase levels or in G6PC as compared to saline treated control.

[5] = Plasma glucose levels of ZDF rats, alone or in combination with rosiglitazone (Table 16); format: in vivo, rat; conditions: alone or with Rosi
Procedure: as §2
(§3) Plasma glucose levels were evaluated at the beginning of the study (Wk 0), during the first week of treatment (Wk 1), during the third week of treatment (Wk 3), and during the fifth week of treatment (Wk 5).

aged Zucker fa/fa rats [6] = experiment: as above; format: in vivo, rat
Procedure: as §2, §3

aged Zucker fa/fa rats [7] = experiment: Oral glucose tolerance test in ZDF rats (Table 17); format: in vivo, rat; conditions: alone or with Rosi
Procedure: as §2
To further evaluate the effects of ISIS 366228 alone or in combination with rosiglitazone, oral glucose tolerance tests were performed during the third week of treatment. To provide a baseline glucose level, fasted blood glucose levels were measured before the challenge. Glucose was administered by oral gavage via an 18 gauge gavage needle at a dose of 1 g/kg. Plasma glucose levels were measured for 15, 30, 60, 90, and 120 minutes post-challenge, using a glucose analyzer (for example, an Ascencia Glucometer Elite XL, Bayer, Tarrytown, N.Y.).

[8] = rat, in vivo
Procedure: For three weeks, male Sprague-Dawley rats were injected twice-weekly with doses of 12.5 mg/kg, 25 mg/kg, or 50 mg/kg of ISIS 145760, ISIS 359543, or ISIS 366228. Each treatment group was comprised of 4 animals. Animals which received twice weekly injections of saline served as controls.
Body weight was monitored throughout the study period. […] Tissue weights were also measured at the end of the study.

[9] = rat, in vivo; remark: listed apart in the source
[10] = rat, in vivo; remark: listed apart in the source
Procedure: Male Zucker fa/fa rats, about 17 to 18 weeks of age, purchased from Charles River Laboratories (Wilmington, Mass.), are maintained on a normal rodent diet. Animals are placed into treatment groups of 8 animals each. One treatment group was dosed subcutaneously twice weekly with 12.5 mg/kg of ISIS 366228 (SEQ ID NO: 203). Another treatment group was dosed twice weekly with 25 mg/kg of ISIS 366228. Other treatment groups were dosed with 12.5 mg/kg or 25 mg/kg ISIS 366228 twice weekly in combination with daily 3 mg/kg doses of rosiglitazone (Rosi) administered in powdered food. Another treatment group received the food-administered daily doses of 3 mg/kg of rosiglitazone alone. Saline-injected animals served as a control treatment group.
Tissue weights were also determined at the end of the study.

[11] = ISIS 366228 12.5 mg/kg twice weekly
[12] = ISIS 366228 25 mg/kg twice weekly

GTGCTTGGCGATGGTACTGA (chemistry not given here) [ISIS 366228]
% Inhibition, target reduction in liver ([1]; 12.5 mg/kg twice weekly): 69%
% Inhibition, target reduction in liver ([1]; 25 mg/kg twice weekly): 82%
% Inhibition, target reduction in liver ([1]; 50 mg/kg twice weekly): 90%
target mRNA levels in rat liver (in words) ([1]; 12.5 to 50 mg/kg): effective in reducing target mRNA levels in rat liver in a dose-dependent manner
plasma cholesterol (CHOL) WK 3 ([2]; 12.5 mg/kg twice weekly, saline 58): 49
plasma triglycerides (TRIG) WK 0 ([2]; 12.5 mg/kg twice weekly, saline 69): 54
plasma cholesterol (CHOL) WK 0 ([2]; 12.5 mg/kg twice weekly, saline 74): 70
plasma GLUCOSE WK 0 ([2]; 12.5 mg/kg twice weekly, saline 135): 147
plasma GLUCOSE WK 3 ([2]; 12.5 mg/kg twice weekly, saline 139): 146
plasma triglycerides (TRIG) WK 3 ([2]; 12.5 mg/kg twice weekly, saline 140): 84
plasma GLUCOSE WK 0 ([2]; 25 mg/kg twice weekly): 148
plasma GLUCOSE WK 3 ([2]; 25 mg/kg twice weekly): 149
plasma cholesterol (CHOL) WK 0 ([2]; 25 mg/kg twice weekly): 93
plasma cholesterol (CHOL) WK 3 ([2]; 25 mg/kg twice weekly): 70
plasma triglycerides (TRIG) WK 0 ([2]; 25 mg/kg twice weekly): 56
plasma triglycerides (TRIG) WK 3 ([2]; 25 mg/kg twice weekly): 76
plasma GLUCOSE WK 0 ([2]; 50 mg/kg twice weekly): 137
plasma GLUCOSE WK 3 ([2]; 50 mg/kg twice weekly): 139
plasma cholesterol (CHOL) WK 0 ([2]; 50 mg/kg twice weekly): 76
plasma cholesterol (CHOL) WK 3 ([2]; 50 mg/kg twice weekly): 54
plasma triglycerides (TRIG) WK 0 ([2]; 50 mg/kg twice weekly): 65
plasma triglycerides (TRIG) WK 3 ([2]; 50 mg/kg twice weekly): 64
plasma triglycerides (in words) ([2]; 12.5 to 50 mg/kg, three weeks): prevented the increases in triglycerides observed in saline-treated animals
glucose-6-phosphatase translocase levels in liver and kidney (in words) [3]: reduced glucose-6-phosphatase translocase levels in liver and kidney at both doses
% Inhibition of glucose-6-phosphatase translocase, Kidney [3, 11]: 35%
% Inhibition of glucose-6-phosphatase translocase, Liver [3, 11]: 40%
% Inhibition of glucose-6-phosphatase translocase, Kidney [3, 12]: 46%
% Inhibition of glucose-6-phosphatase translocase, Liver [3, 12]: 80%
% Inhibition of G6PC, Kidney [4, 11]: 17%
% Inhibition of G6PC, Liver [4, 11]: 39%
% Inhibition of G6PC, Kidney [4, 12]: 33%
% Inhibition of G6PC, Liver [4, 12]: 0%
Plasma glucose ([5]; ISIS 366228 12.5 mg/kg, Wk 0, saline 571): 570 mg/dL
Plasma glucose ([5]; ISIS 366228 12.5 mg/kg, Wk 1, saline 549): 549 mg/dL
Plasma glucose ([5]; ISIS 366228 12.5 mg/kg, Wk 3, saline 552): 547 mg/dL
Plasma glucose ([5]; ISIS 366228 12.5 mg/kg, Wk 5, saline 536): 532 mg/dL
Plasma glucose ([5]; ISIS 366228 25 mg/kg, Wk 0): 569 mg/dL
Plasma glucose ([5]; ISIS 366228 25 mg/kg, Wk 1): 542 mg/dL
Plasma glucose ([5]; ISIS 366228 25 mg/kg, Wk 3): 507 mg/dL
Plasma glucose ([5]; ISIS 366228 25 mg/kg, Wk 5): 488 mg/dL
plasma glucose over the course of the study (in words) (aged Zucker fa/fa rats [6]): caused reductions in plasma glucose
plasma glucose, OGTT (aged Zucker fa/fa rats [7]; week 3, ISIS 366228 12.5 mg/kg, 0 min (fasted)): 317 mg/dL
plasma glucose, OGTT (aged Zucker fa/fa rats [7]; week 3, ISIS 366228 12.5 mg/kg, 15 min): 418 mg/dL
plasma glucose, OGTT (aged Zucker fa/fa rats [7]; week 3, ISIS 366228 12.5 mg/kg, 30 min): 553 mg/dL
plasma glucose, OGTT (aged Zucker fa/fa rats [7]; week 3, ISIS 366228 12.5 mg/kg, 60 min): 485 mg/dL
plasma glucose, OGTT (aged Zucker fa/fa rats [7]; week 3, ISIS 366228 12.5 mg/kg, 90 min): 441 mg/dL
plasma glucose, OGTT (aged Zucker fa/fa rats [7]; week 3, ISIS 366228 12.5 mg/kg, 120 min): 444 mg/dL
plasma glucose, OGTT (aged Zucker fa/fa rats [7]; week 3, ISIS 366228 25 mg/kg, 0 min (fasted)): 303 mg/dL
plasma glucose, OGTT (aged Zucker fa/fa rats [7]; week 3, ISIS 366228 25 mg/kg, 15 min): 453 mg/dL
plasma glucose, OGTT (aged Zucker fa/fa rats [7]; week 3, ISIS 366228 25 mg/kg, 30 min): 540 mg/dL
plasma glucose, OGTT (aged Zucker fa/fa rats [7]; week 3, ISIS 366228 25 mg/kg, 60 min): 461 mg/dL
plasma glucose, OGTT (aged Zucker fa/fa rats [7]; week 3, ISIS 366228 25 mg/kg, 90 min): 427 mg/dL
plasma glucose, OGTT (aged Zucker fa/fa rats [7]; week 3, ISIS 366228 25 mg/kg, 120 min): 408 mg/dL
Fat weight ([8]; 12.5 mg/kg): 1.6 grams
Fat weight ([8]; 25 mg/kg): 1.5 grams
Fat weight ([8]; 50 mg/kg): 1.1 grams
Kidney weight ([8]; 50 mg/kg): 3 grams
Liver weight ([8]; 50 mg/kg): 15 grams
Spleen weight ([8]; 50 mg/kg): 1.1 grams
body weight (in words) [9]: did not cause increased body weight
renal enlargement (in words) [10]: renal enlargement associated with human glycogen storage disease type 1B is not observed
Fat pad weight ([10]; 12.5 mg/kg): 7 grams
Fat pad weight ([10]; 25 mg/kg): 6 grams
